Assays:
[1] = system: ICAM-1, P-selectin and VCAM-1 on HBMEC; test: Immunofluorescence staining of HBMEC after T cell-rolling; assay type: cell-based, human
Procedure: After rolling and adhesion of T cells on HBMEC or HUVEC under flow conditions, endothelial cells were fixed using 150 μl of 4% paraformaldehyde solution (#P-6148, Sigma-Aldrich) for 30 min at 4° C. μ-slides were rinsed with 150 μl of D-PBS and subjected to immunofluorescence staining. HBMEC were first blocked with 150 μl of avidin blocking reagent (#PHA-70871, reagent 1, Dianova) for 10 min at room temperature, washed with 150 μl of D-PBS followed by incubation with 150 μl of biotin blocking reagent (#PHA-70871, reagent 2, Dianova). All following staining procedures were performed in 150 μl of D-PBS with 5% FBS at room temperature in the dark, and washing steps were done in 150 μl of D-PBS. μ-slides were incubated with 5 μg/ml polyclonal rabbit anti-human VCAM-1 (#106777, abcam) for 1 h. After washing, 20 μg/ml goat anti-rabbit IgG-DyLight350 was added for 1 h followed by washing and incubation with 15 μg/ml mouse anti-human P-selectin IgG1 (#BBA30, R&D Systems) for 2 h. After washing, goat anti-mouse IgG-Alexa488 (1:100) (#A10680, Invitrogen) was added for 1 h. […] VCAM-1 staining was monitored with a CFL EPI-FL Filter Block UV-2A (#MBE41200, Nikon), P-selectin staining with a CFL EPI-FL Filter Block GFP-B (#MBE44740, Nikon), and ICAM-1 staining with an EPI-FL Filter Block Cy3 (#MXU96213, Nikon). […]

HUVEC = test: In vitro flow chamber: T cell-rolling and adhesion on HUVEC, long-term conditions; assay type: cell-based, human; conditions: 40 min
Procedure: Human brain microvascular endothelial cells (HBMEC) (#1000, Sciencell Research Laboratories) or human umbilical vein endothelial cells (HUVEC) (#C-12200, Promocell) were used as endothelial cell-model. Cryopreserved HBMEC at passage 1 (>5×10^5 cells/ml) were first cultivated in fibronectin-coated Nunclon-treated 75 cm^2 cell culture flasks (#156499, Nunc) at 37° C. and 5% CO2 in a Heraeus Cytoperm 2 (Thermo Scientific) according to the manufacturer's instructions. Sub-cultivation of HBMEC was done with the Detach Kit (#C-41200, Promocell) consisting of HEPES-buffered balanced salt solution (#C-40000, Promocell), trypsin-EDTA solution (0.04%/0.03%) (#C-41000, Promocell) and trypsin neutralization solution (TNS, #C-41100, Promocell). Briefly, the medium was aspirated from the HBMEC-layer and cells were washed with 2 ml of HEPES-buffered balanced salt solution. Addition of 2 ml of trypsin-EDTA solution for 1-5 min at room temperature led to detachment of HBMEC from the flask bottom. Inactivation of trypsin-EDTA solution was performed by addition of 2 ml of trypsin neutralization solution to the cell suspension. Cells were centrifuged at 300 g for 4 min in a Heraeus Megafuge 40 (Thermo Scientific) and seeded at a cell density of 5×10^5 cells per gelatin-coated 75 cm^2 cell culture flask (#L7230, Biochrom). HBMEC for rolling and adhesion experiments were cultivated in RPMI 1640 medium (#FG1215, Biochrom) supplemented with Nu-Serum IV (10%) (#355505, BD Biosciences), dialyzed FBS (10%) (#SZ0115, Biochrom), MEM-vitamins (1%) (#K0373, Biochrom), L-glutamine (1%) (#K0283, Biochrom), sodium-pyruvate (1%) (#L0473, Biochrom), heparin (10 U/ml) (#L6510, Biochrom), and […] cell growth factor ECGS (30 μg/ml) (#02-102, Millipore). Cultivation of HUVEC was done in endothelial cell growth medium (#C-22010, Promocell) supplemented with dialyzed FBS (10%) (#SZ0115, Biochrom) using gelatin-coated 75 cm^2 cell culture flasks. Sub-cultivation of HUVEC was performed with the Detach Kit ([…], Promocell) and cells were seeded at a cell density of 4.0-7.5×10^5 cells per 75 cm^2 cell culture flask.
Isolation of human PBMC from blood was performed by modified density gradient centrifugation as described elsewhere. Briefly, 15-20 ml of freshly drawn heparinized blood was transferred in Biocoll (#L6115, Biochrom)-containing Leukosep tubes (#227290, Greiner bio-one) and centrifuged in a Hettich Rotanta 460 RS Type 5606 (Hettich Laborapparate) at 1066 g for 15 min. After removal of the plasma fraction the PBMC containing phase was transferred in a new tube and washed twice with FACS-buffer (D-PBS #L1820, 5% FBS #SO115, Biochrom). Erythrocyte lysis was performed with lysis buffer (8.29 g/l NH4Cl, 1.00 g/l KHCO3, 0.037 g/l EDTA) for 5 min at room temperature. […]

Blinatumomab: recombinant CD19×CD3 bispecific scFv antibody consisting of four immunoglobulin variable domains assembled into a single polypeptide chain
surface expression of adhesion molecules on HBMEC ([1]; after T cell-rolling with Blinatumomab-stimulated T cells, 120 min): increased surface expression of adhesion molecules ICAM-1, P-selectin and VCAM-1
cell surface expression of P-selectin on HBMEC ([1]; histamine-stimulated HBMEC, Blinatumomab added, no PPS): increased
increase of number of adhering T cells (HUVEC; +AMG 103 10 ng/ml vs T cells alone, long-term): 2.1 fold
mean T cell-rolling velocity±SD (HUVEC; non-stimulated HUVEC (minocycline experiment), +AMG 103 10 ng/ml, control −AMG 103 169): 127±41 μm/sec

Source: patent US9688760B2, “Anti-leukocyte adhesion for the mitigation of potential adverse events caused by CD3-specific binding domains” (AMGEN RESEARCH (MUNICH) GMBH, priority 2013, dated 2017)
